In article PMC5227004, “Native ESI Mass Spectrometry Can Help to Avoid Wrong Interpretations from Isothermal Titration Calorimetry in Difficult Situations” (Journal of the American Society for Mass Spectrometry, 2016):

Legend:
[1] = molecular target: T1, DNA-polymerase processivity factor (β-ring) from Escherichia coli (Escherichia coli, UniProt P0A988); assay: Native ESI-MS titration of peptide binding to the E. coli β-ring; conditions: βE.coli; processing taking into account separately the species R3
T1 sequence (P0A988 whole entry, looked up): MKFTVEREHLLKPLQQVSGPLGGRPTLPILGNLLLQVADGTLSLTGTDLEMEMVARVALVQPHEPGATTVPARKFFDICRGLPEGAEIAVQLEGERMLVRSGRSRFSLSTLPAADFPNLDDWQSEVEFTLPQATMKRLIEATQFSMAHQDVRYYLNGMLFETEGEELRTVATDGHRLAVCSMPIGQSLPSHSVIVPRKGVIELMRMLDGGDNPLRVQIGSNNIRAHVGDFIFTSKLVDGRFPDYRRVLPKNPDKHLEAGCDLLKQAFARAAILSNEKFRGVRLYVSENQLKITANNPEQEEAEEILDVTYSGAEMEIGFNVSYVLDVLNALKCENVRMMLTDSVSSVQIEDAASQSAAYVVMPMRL

[2] = molecular target: T1, DNA-polymerase processivity factor (β-ring) from Escherichia coli; assay: Isothermal titration calorimetry (ITC) of peptide binding to the E. coli β-ring; conditions: βE.coli
Experimental: We used an iTC200 from Microcal (now Microcal-Malvern, UK) operated in the high-gain mode. […] In short, the β -rings were initially in the cell at concentrations ranging from 20 to 60 μM and the peptides were in the syringe at concentrations ranging from 200 to 600 μM. The buffer was Hepes 10 mM, pH 7.4, supplemented with NaCl 150 mM and EDTA 3 mM. Experiments were performed at different temperatures from 15 to 34 °C.
The processing of the ITC data was first performed with the same model as the one used for ESI-MS (one specific binding site per monomer). […] The advantage of this still unusual method is of fitting several titration curves with a minimum set of free parameters. All K d values obtained by ITC were corrected for 22.5 °C, which was the incubation temperature used in ESI-MS experiments. This was performed by using the Van’t Hoff equation: ∂ ln K d/∂T = − ΔH/(RT ^2), where ΔH is the variation of enthalpy during complex formation and R = 8.314 J mol^−1 K^−1 the gas constant. Note that such a correction is quite justified for K d values obtained by ITC since the primary output from ITC is precisely the enthalpic term ΔH governing the evolution of K d with the temperature.
This competition model requires determining a fixed fraction f 1 of the protein monomers binding their ligand according to a dissociation constant K d1 and an enthalpy variation ΔH 1, and a fixed fraction f 2 = 1 − f 1 binding their ligand according to a dissociation constant K d2 and an enthalpy variation ΔH 2 (we consider K d2 < K d1).

[3] = model with two competing modes of binding on the same site

`CC(=O)N[C@@H](CCC(N)=O)C(=O)N[C@@H](CC(C)C)C(=O)N[C@@H](CC(=O)O)C(=O)N[C@@H](CC(C)C)C(=O)N[C@@H](Cc1ccccc1)C(=O)O` [P6] was tested, and the “P, probability of GPD (ESI-MS, Equations 4)” value [1] was 0.0528, the “ΔH1 (ITC), weaker binding mode” value [2, 3] was “≈ 1 kcal mol^−1” and the “ΔH2 (ITC), stronger binding mode” value [2, 3] was “≈ –12 kcal mol^−1”. For the same molecule, the “ΔH (ITC), one binding mode” value ([2]; simple model with one binding mode, at 25 °C) was “≈ –11.8 ± 0.2 kcal mol^−1”.
